Test results from patent US11180504B2 (ORCHID PHARMA LTD., priority 2016, dated 2021).
Converted amounts (≈) assume the structure as drawn. Read-outs that look alike come from different tables or passages of the source.

Tests used:
[1] = system: carbapenem sensitive Escherichia coli; test: MIC by broth micro-dilution (CLSI), carbapenem sensitive E. coli; format: cell-based; details: Escherichia coli
[2] = system: carbapenemase producing K. pneumoniae; test: MIC by broth micro-dilution (CLSI), carbapenemase producing K. pneumoniae; format: cell-based, Klebsiella pneumoniae; details: Klebsiella pneumoniae
[3] = system: extended spectrum β lactamase (ESBL) SHV18 producing Klebsiella pneumoniae; test: MIC by broth micro-dilution (CLSI), ESBL SHV18 producing K. pneumoniae; format: cell-based; details: Klebsiella pneumoniae, ATCC700603, 22 h
[4] = system: methicillin-sensitive Staphylococcus aureus; test: MIC by broth micro-dilution (CLSI), methicillin-sensitive S. aureus; format: cell-based; details: Staphylococcus aureus, ATCC 29213 / MSSA
[5] = system: carbapenem sensitive Pseudomonas aeruginosa; test: MIC by broth micro-dilution (CLSI), carbapenem sensitive P. aeruginosa; format: cell-based; details: Pseudomonas aeruginosa
[6] = ATCC25922, ESBL −ve E. coli ATCC25922, read-out: MIC
[7] = ATCCBAA1705, KPC-2 K. pneumoniae ATCC BAA-1705, read-out: MIC
[8] = ESBL +ve (SHV-18) K. pneumoniae ATCC700603, read-out: MIC
[9] = MSSA S. aureus ATCC29213, read-out: MIC
[10] = ATCC27853, Meropenem susceptible P. aeruginosa ATCC27853, read-out: MIC

Row | Structure (SMILES) | MIC [1, 6] [µg/mL] | MIC [2, 7] [µg/mL] | MIC [3, 8] [µg/mL] | MIC [4, 9] [µg/mL] | MIC [5, 10] [µg/mL] | MIC ([1]; ATCC25922) [µg/mL] | MIC ([2]; ATCCBAA1705) [µg/mL] | MIC [3] [µg/mL] | MIC [4] [µg/mL] | MIC ([5]; ATCC27853) [µg/mL]
1 | CCS(=O)(=O)CC(=O)N[C@H](C)[C@H]1C(=O)N2C(C(=O)O)=C(S[C@@H]3CN[C@H](C(=O)N(C)C)C3)[C@H](C)[C@H]12 [Example 63] | 1 to 2 (≈ 1.94 to 3.87 µM) | 8 to 16 (≈ 15.5 to 31 µM) | 16 to 32 (≈ 31 to 61.9 µM) | 8 to 16 (≈ 15.5 to 31 µM) | > 128 | – | – | – | – | –
2 | C[C@@H](NC(=O)C(F)(F)F)[C@H]1C(=O)N2C(C(=O)O)=C(S[C@@H]3CN[C@H](C(=O)N(C)C)C3)[C@H](C)[C@H]12 [Example 64] | 1 to 2 (≈ 2.09 to 4.18 µM) | 8 (≈ 16.7 µM) | 8 (≈ 16.7 µM) | 2 (≈ 4.18 µM) | 64 (≈ 134 µM) | – | – | – | – | –
3 | C[C@@H](NC(=O)C(=O)N(C)C)[C@H]1C(=O)N2C(C(=O)O)=C(S[C@@H]3CN[C@H](C(=O)N(C)C)C3)[C@H](C)[C@H]12 [Example 66] | 2 (≈ 4.15 µM) | 4 to 8 (≈ 8.31 to 16.6 µM) | 8 (≈ 16.6 µM) | 8 (≈ 16.6 µM) | > 128 | – | – | – | – | –
4 | CC(C)C[C@H](O)C(=O)N[C@H](C)[C@H]1C(=O)N2C(C(=O)O)=C(S[C@@H]3CN[C@H](C(=O)N(C)C)C3)[C@H](C)[C@H]12 [Example 67] | 8 (≈ 16.1 µM) | > 128 | > 128 | 4 (≈ 8.05 µM) | > 128 | – | – | – | – | –
5 | C[C@H](N)C(=O)N[C@H](C)[C@H]1C(=O)N2C(C(=O)O)=C(S[C@@H]3CN[C@H](C(=O)N(C)C)C3)[C@H](C)[C@H]12 [Example 68] | 4 (≈ 8.82 µM) | > 128 | 8 (≈ 17.6 µM) | 32 (≈ 70.6 µM) | 32 to 64 (≈ 70.6 to 141 µM) | – | – | – | – | –
6 | C[C@@H](NC(=O)CNS(C)(=O)=O)[C@H]1C(=O)N2C(C(=O)O)=C(S[C@@H]3CN[C@H](C(=O)N(C)C)C3)[C@H](C)[C@H]12 [Example 70] | 4 (≈ 7.73 µM) | 16 (≈ 30.9 µM) | 8 (≈ 15.5 µM) | 16 (≈ 30.9 µM) | > 128 | – | – | – | – | –
7 | C[C@@H](NC(=O)[C@@H](N)Cc1ccccc1)[C@H]1C(=O)N2C(C(=O)O)=C(S[C@@H]3CN[C@H](C(=O)N(C)C)C3)[C@H](C)[C@H]12 [Example 71] | 16 (≈ 30.2 µM) | 64 (≈ 121 µM) | 128 (≈ 242 µM) | 8 (≈ 15.1 µM) | > 128 | – | – | – | – | –
8 | C[C@@H](NC(=O)[C@H](N)Cc1ccccc1)[C@H]1C(=O)N2C(C(=O)O)=C(S[C@@H]3CN[C@H](C(=O)N(C)C)C3)[C@H](C)[C@H]12 [Example 72] | 32 (≈ 60.4 µM) | > 128 | > 128 | 32 (≈ 60.4 µM) | > 128 | – | – | – | – | –
9 | CC(C)OC(=O)C(=O)N[C@H](C)[C@H]1C(=O)N2C(C(=O)O)=C(S[C@@H]3CN[C@H](C(=O)N(C)C)C3)[C@H](C)[C@H]12 [Example 73] | 1 to 2 (≈ 2.01 to 4.03 µM) | 8 (≈ 16.1 µM) | 4 (≈ 8.05 µM) | 4 (≈ 8.05 µM) | 4 to 16 (≈ 8.05 to 32.2 µM) | – | – | – | – | –
10 | COC(=O)C(=O)N[C@H](C)[C@H]1C(=O)N2C(C(=O)O)=C(S[C@@H]3CN[C@H](C(=O)N(C)C)C3)[C@H](C)[C@H]12 [Example 74] | 1 to 2 (≈ 2.13 to 4.27 µM) | 4 (≈ 8.54 µM) | 1 to 2 (≈ 2.13 to 4.27 µM) | 8 to 16 (≈ 17.1 to 34.1 µM) | 8 (≈ 17.1 µM) | – | – | – | – | –
11 | CNC(=O)C(=O)N[C@H](C)[C@H]1C(=O)N2C(C(=O)O)=C(S[C@@H]3CN[C@H](C(=O)N(C)C)C3)[C@H](C)[C@H]12 [Example 75] | 1 (≈ 2.14 µM) | 16 (≈ 34.2 µM) | 8 (≈ 17.1 µM) | 4 (≈ 8.56 µM) | > 128 | – | – | – | – | –
12 | C[C@@H](NC(=O)C(F)F)[C@H]1C(=O)N2C(C(=O)O)=C(S[C@@H]3CN[C@H](C(=O)N4CCC(F)(F)CC4)C3)[C@H](C)[C@H]12 [Example 76] | 1 (≈ 1.86 µM) | 8 (≈ 14.9 µM) | 8 (≈ 14.9 µM) | 2 (≈ 3.73 µM) | > 128 | – | – | – | – | –
13 | C[C@@H](NC(=O)C(F)F)[C@H]1C(=O)N2C(C(=O)O)=C(S[C@@H]3CN[C@H](C(=O)N4CC[C@H](O)C4)C3)[C@H](C)[C@H]12 [Example 77] | 0.5 to 1 (≈ 0.995 to 1.99 µM) | 4 (≈ 7.96 µM) | 1 (≈ 1.99 µM) | 4 to 8 (≈ 7.96 to 15.9 µM) | 32 to 64 (≈ 63.7 to 127 µM) | – | – | – | – | –
14 | C[C@@H](NC(=O)CS(C)(=O)=O)[C@H]1C(=O)N2C(C(=O)O)=C(S[C@@H]3CN[C@H](C(=O)N(C)C)C3)[C@H](C)[C@H]12 [Example 78] | 1 (≈ 1.99 µM) | > 128 | 2 (≈ 3.98 µM) | 8 (≈ 15.9 µM) | 128 (≈ 255 µM) | – | – | – | – | –
15 | CC(C)C[C@@H](F)C(=O)N[C@H](C)[C@H]1C(=O)N2C(C(=O)O)=C(S[C@@H]3CN[C@H](C(=O)N(C)C)C3)[C@H](C)[C@H]12 [Example 79] | 32 (≈ 64.2 µM) | > 128 | > 128 | 4 (≈ 8.02 µM) | > 128 | – | – | – | – | –
16 | C[C@@H](NC(=O)C(F)F)[C@H]1C(=O)N2C(C(=O)O)=C(S[C@@H]3CNC(C[N+]4(C)CCCC4)C3)[C@H](C)[C@H]12 (stereo partly shown) [Example 80] | 4 | 64 | 32 | 4 | > 128 | – | – | – | – | –
17 | C[C@@H](NC(=O)C(F)F)[C@H]1C(=O)N2C(C(=O)O)=C(S[C@@H]3CNC(CN4CCCC4)C3)[C@H](C)[C@H]12 (stereo partly shown) [Example 81] | 1 (≈ 2.12 µM) | 8 (≈ 16.9 µM) | 8 (≈ 16.9 µM) | 1 (≈ 2.12 µM) | 64 (≈ 135 µM) | – | – | – | – | –
18 | CC(C)CC(F)(F)C(=O)N[C@H](C)[C@H]1C(=O)N2C(C(=O)O)=C(S[C@@H]3CN[C@H](C(=O)N(C)C)C3)[C@H](C)[C@H]12 [Example 83] | 64 (≈ 124 µM) | > 128 | > 128 | 2 (≈ 3.87 µM) | > 128 | – | – | – | – | –
19 | C[C@@H](NC(=O)C(F)F)[C@H]1C(=O)N2C(C(=O)O)=C(S[C@@H]3CN[C@H](CNS(C)(=O)=O)C3)[C@H](C)[C@H]12 [Example 85] | 0.5 (≈ 1.01 µM) | 2 (≈ 4.03 µM) | 2 (≈ 4.03 µM) | 1 (≈ 2.01 µM) | 64 (≈ 129 µM) | – | – | – | – | –
20 | C[C@@H](NS(=O)(=O)CC(F)(F)F)[C@H]1C(=O)N2C(C(=O)O)=C(S[C@@H]3CN[C@H](C(=O)N(C)C)C3)[C@H](C)[C@H]12 [Example 86] | 1 (≈ 1.89 µM) | 8 (≈ 15.1 µM) | 8 (≈ 15.1 µM) | 2 (≈ 3.78 µM) | 128 (≈ 242 µM) | – | – | – | – | –
21 | C[C@@H](NC(=O)C(F)(F)C(F)(F)F)[C@H]1C(=O)N2C(C(=O)O)=C(S[C@@H]3CN[C@H](C(=O)N(C)C)C3)[C@H](C)[C@H]12 [Example 87] | 1 (≈ 1.89 µM) | 8 (≈ 15.1 µM) | 8 (≈ 15.1 µM) | 2 (≈ 3.78 µM) | 64 (≈ 121 µM) | – | – | – | – | –
22 | C[C@@H](NC(=O)C(F)F)[C@H]1C(=O)N2C(C(=O)O)=C(Sc3nc(-c4ccncc4)cs3)[C@H](C)[C@H]12 [Example 88] | 128 (≈ 266 µM) | > 128 | > 128 | 0.25 (≈ 0.52 µM) | > 128 | – | – | – | – | –
23 | C[C@@H](NC(=O)C(F)F)[C@H]1C(=O)N2C(C(=O)O)=C(S[C@@H]3CN[C@H](CNC(=O)N(C)C)C3)[C@H](C)[C@H]12 [Example 89] | 0.5 (≈ 1.02 µM) | 4 (≈ 8.17 µM) | 8 (≈ 16.3 µM) | 0.5 (≈ 1.02 µM) | 128 (≈ 261 µM) | – | – | – | – | –
24 | C[C@@H](NC(=O)C(F)F)[C@H]1C(=O)N2C(C(=O)O)=C(S[C@@H]3CN[C@H](CN4CCOCC4)C3)[C@H](C)[C@H]12 [Example 90] | 1 (≈ 2.05 µM) | 4 (≈ 8.19 µM) | 32 (≈ 65.5 µM) | 1 (≈ 2.05 µM) | 128 (≈ 262 µM) | – | – | – | – | –
25 | COP(=O)(CC(=O)N[C@H](C)[C@H]1C(=O)N2C(C(=O)O)=C(S[C@@H]3CN[C@H](C(=O)N(C)C)C3)[C@H](C)[C@H]12)OC [Example 91] | – | – | – | – | – | 4 (≈ 7.51 µM) | 32 (≈ 60.1 µM) | 32 (≈ 60.1 µM) | 16 (≈ 30 µM) | > 128
26 | C[C@@H](NC(=O)C(F)F)[C@H]1C(=O)N2C(C(=O)O)=C(SCCN)[C@H](C)[C@H]12 [Example 92] | 0.5 (≈ 1.38 µM) | 4 (≈ 11 µM) | 4 (≈ 11 µM) | 1 (≈ 2.75 µM) | 32 (≈ 88.1 µM) | – | – | – | – | –
